“Also recorded” adds a separate entry of the source. No end group written: not given here.
Experiments:
primed T cells = assay: proliferation of TCR-stimulated primed T cells (3H-thymidine incorporation); type: cell-based, mouse (BALB/c); settings: primed T cells + anti-CD3ε 2C11, α-MSH present, 3H-thymidine at 24 h, counted at 48 h
EAU = settings: direct injections into eyes of mice; cited from earlier work
CD4+ T cells = assay: flow cytometry of intracellular IFN-γ and IL-4 in TCR-stimulated primed T cells; type: cell-based, mouse (BALB/c); settings: α-MSH 30 pg/ml, anti-CD3, 24 h
Procedure: Flow Cytometry. For immunostaining and flow cytometry, T cells (2×10^6 cells) were obtained from 24 hour cultures of enriched primed T cells TCR-stimulated in the presence of α-MSH as described above. The cells were centrifuged and washed once in 400 μl of brefeldin/PBS buffer (10 mM PBS, 10 μg/ml brefeldin A). The cells were resuspended in 100 μl of PBS/brefeldin and 100 μl of 4% paraformaldehyde/PBS fixing buffer. The cells were incubate at room temperature for 20 minutes with gentle agitation and washed once with 200 μl of brefeldin/PBS, centrifuged, and resuspended in 50 μl of PBS/saponin (10 mM PBS, 1% BSA, 0.1% Na Azide, 0.5% Saponin) and incubated 10 minutes at room temperature. To the cell suspensions 2 μg of FITC-conjugated anti-cytokine antibody (anti-IL-4 or -IFN-γ) or FITC-isotype control was added. […] The stained cells were analyzed by a Coulter Epics flow cytometer calibrated for two color fluorescence, and presented were the fluorescence of blast (proliferating) cells in two dimensions.
To further examine α-MSH suppression of IFN-γ production by T cells, the frequency of IFN-γ producing T cells activated in the presence of α-MSH was assayed by flow cytometry. […] The stained cells were analyzed by two-color flow cytometry gating on the blastogenic, proliferating T cells. […] Percent of analyzed cell population is given for each quadrant in the lower right-hand of each histogram. […]

primed Th1 cells = assay: in vitro regulatory T cell activity assay (IFN-γ of freshly activated primed Th1 cells in coculture); type: cell-based, mouse (BALB/c)
Procedure: Assay For In Vitro Regulatory T Cell Activity. The α-MSH-treated TCR-stimulated T cells, as described above, were cultured for 48 hours. The plate was spun down at 250×g for 10 minutes and supernatant discarded. Freshly isolated, enriched in vivo primed Th1 cells (4×10^6 cells/ml) mixed with 2C11 (1 μg/ml) were added (200 μl) to the wells of the α-MSH pre-treated, TCR-stimulated T cells and incubated for 48 hours. The culture supernatant was assayed for IFN-γ by sandwich ELISA. For long term cultures, primed T cells were TCR-stimulated in the presence of α-MSH for 48 hours. The plate was centrifuged and supernatant was exchanged for 200 μl of 2C11 (1 μg/ml) in fresh media, no x-MSH. The cultures were incubated for 72 hours and the conditioned media was again exchanged for fresh media and 2C11 antibody. The cultures were incubated for an additional 48 hours, centrifuged, supernatant discarded, and added were fresh in vivo primed Th1 cells and 2C11 antibody. Soluble TGF-β receptor II (sTGF-βRII, R&D Systems) was added to some of the cultures. These cultures were incubated for 48 hours and the culture supernatant was assayed for IFN-γ by sandwich ELISA.
Primed T cells (4×10^5 cells) were enriched and activated with anti-CD3 in the presence (α-MSH+anti-CD3) or absence (+anti-CD3) of α-MSH (30 pg/ml). After 48 hours of incubation the cells were mixed with freshly enriched primed Th1 cells (4×10^5 cells) and anti-CD3 antibody and cultured for 48 hours. The culture supernatant was assayed for IFN-γ by sandwich ELISA. Results are presented as IFN-γ pg/ml±SEM of eight independent experiments.
In addition, T cells initial TCR-stimulated in the presence of α-MSH and subsequently restimulated twice (Day 2 and Day 5) with anti-TCR antibody in the absence of α-MSH, still suppressed IFN-γ production by freshly activated primed Th1 cells (FIG. 6). […] Primed T cells (4×10^5 cells) were enriched and activated with anti-CD3 antibody in the presence of 30 pg/ml α-MSH (α-MSH+anti-CD3) or absence of α-MSH (+anti-CD3). After 48 hours of incubation the cells were centrifuged and resuspended in fresh media with anti-CD3 antibodies and incubated for 72 hours (day 5). The cells were again washed and re-stimulated with anti-CD3 and incubated for an additional 48 hours (day 7). After the final incubation the treated T cells (4×10^5 cells) were mixed with freshly enriched primed Th1 cells (4×10^5 cells) and anti-CD3 antibody and cultured for 48 hours. The culture supernatant was assayed for IFN-γ by sandwich ELISA. Results are presented as IFN-γ pg/ml±SEM of eight independent experiments. […] Therefore, α-MSH mediates induction of functionally active, regulatory Th3 cells.
TGF-β and α-MSH induce regulatory T cell activity. Primed T cells were TCR-stimulated in the presence or absence of 30 pg/ml α-MSH with TGF-β1 or TGF-β2 (5.0 ng/ml) added 4 hours after TCR-stimulation. The treated T cells (Regulatory T cells) were added to cultures of freshly activated primed T cells. Culture supernatants were assayed for IFN-γ 48 hours after addition of treated T cells. Data are presented as percent suppression±SEM of IFN-γ produced by freshly activated T cells with no added regulatory cells, from eight independent experiments.

Q: Which “TCR-stimulated T cell proliferation” value (primed T cells) does the source give for “α-melanocyte stimulating hormone (SYSMEHFRWGKPV; not fully specified; ends and bridges not checked; UniProt P01189 138-150, looked up) [α-MSH, synthetic α-MSH (Peninsula Laboratories); thirteen-amino acid neuropeptide derived from POMC]” here?
A: The value was “no affect; also recorded: no effect”.

Q: What about the “severity of inflammation and recovery in EAU” value (EAU) of the same substance?
A: Its value is “suppress the severity of the inflammation and accelerate recovery”.

Q: And the “frequency of IFN-γ positive cells, intracellular IFN-γ staining in CD4+ T cells” value (CD4+ T cells)?
A: The value was “substantially shifted toward lower levels”.

Q: What about the “intracellular IL-4 staining in CD4+ T cells” value (CD4+ T cells) of the same substance?
A: Its value is “shift to higher levels”.

Q: And the “IFN-γ in cocultures with T cells initially activated in the presence of α-MSH, long term” value (primed Th1 cells; α-MSH 30 pg/ml only at first stimulation, restimulated Day 2 and Day 5 without α-MSH, then coculture 48 h)?
A: Its value is “significantly (p=0.05) suppressed”.

Q: What about the “induction of regulatory T cell activity (suppression of IFN-γ of other Th1 cells), factor individually” value (primed Th1 cells; α-MSH 30 pg/ml or TGF-β 5.0 ng/ml) of the same substance?
A: Its value is “induced regulatory T cell activity”.
